According to patent US11572590B2, “Methods for evaluating tumor cell spheroids using 3D microfluidic cell culture device” (Dana-Farber Cancer Institute, Inc., priority 2017, dated 2023):

Experiments:
B16F10 lung metastases = assay: B16F10 tail vein injection model, lung metastases; format: in vivo, mouse; conditions: Compound 1 40 mg/kg daily for 13 days ± anti-PD-L1 10 mg/kg
Protocol: Combination studies were performed by vivoPharm (Hummelstown, Pa., USA). All procedures used in the performance of these studies were carried out in accordance with vivoPharm's Standard Operating Procedures, with particular reference to US_SOPvP_EF0314 “General Procedures for Efficacy Studies.” CT26 colon carcinoma cells (1×10^6 cells/mouse in 100 μL, passage 2-3) were re-suspended in serum-free DMEM and implanted in the upper right flank of 11-12 week old female Balb/c mice (Charles River Laboratories). Mice were randomized into four groups of 10 using a matched pair distribution method based on tumor size for CT26. Treatment was initiated 12 days post-inoculation with mean tumor volume at start of dosing of 125.85 mm^3. Vehicle or Compound 1 (40 mg/kg) was administered by oral gavage daily for 26 days and isotype control or a reverse chimera anti-PD-L1 cloned from literature reports (e.g., Deng, R. et al. MAbs (2016), the content of which is incorporated herein by reference in entirety) and placed into a mouse IgG1 framework (10 mg/kg) was administered every 5 days for a total of six doses. Investigators were not blinded to treatment groups. […] Mice were sacrificed on Day 13 and lung metastases were quantified (small ≤1 mm, medium >1 mm and ≤3 mm, large >3 mm). No large lung metastases were detected.

MB49 allograft = assay: MB49 allograft, Compound 1 and anti-PD-L1 combination in vivo; design: species or system mouse; conditions: Cmpd1 + αPD-L1
MC38 MDOTS = assay: Live/dead (AO/PI) imaging of MC38 MDOTS in 3D microfluidic culture; format: cell-based, murine; conditions: Cmpd1 (1 μM) + αPD-1; did not reach significance vs single-agent PD-1
Protocol: Fresh tumor specimens (murine and human patients) were received in media (DMEM) on ice and minced in a 10 cm dish (on ice) using sterile forceps and scalpel. Minced tumor was resuspended in DMEM ([…], […] sodium pyruvate, 1:100 penicillin-streptomycin) (Corning CellGro, Manassas, Va.) +10% FBS (Gemini Bio-Products, West Sacramento, Calif.), 100 U/mL collagenase type IV (Life Technologies, Carlsbad, Calif.), and 15 mM HEPES (Life Technologies, Carlsbad, Calif.), except for CT26 tumors that were prepared in RPMI. Samples were pelleted and resuspended in 10-20 mL media. Red blood cells were removed from visibly bloody samples using RBC Lysis Buffer (Boston Bio-Products, Ashland, Mass.). […]
Dual labeling was performed by loading microfluidic device with Nexcelom ViaStain™ AO/PI Staining Solution (Nexcelom, CS2-0106). Following incubation with the dyes (20 minutes at room temperature in the dark), images were captured on a Nikon Eclipse 80i fluorescence microscope equipped with Z-stack (Prior) and CoolSNAP CCD camera (Roper Scientific). […] Live and dead cell quantitation was performed by measuring total cell area of each dye. […]

In the case of N#Cc1cc(-c2ncnc(Nc3ccc(N4CCN(C5COC5)CC4)cc3)n2)ccc1OC1CCOCC1 [Compound 1, 5-(4-((4-(4-(oxetan-3-yl)piperazin-1-yl)phenyl)amino)-1,3,5-triazin-2-yl)-2-((tetrahydro-2H-pyran-4-yl)oxy)benzonitrile], the “sensitization of B16F10 tail vein model to PD-L1 blockade (lung metastases)” value (B16F10 lung metastases) is reported as “could not be sensitized”, the “response to combination treatment in vivo, MB49 bladder carcinoma model” value (MB49 allograft) is reported as “enhanced response” and the “ex vivo killing of MC38 MDOTS, combination treatment” value (MC38 MDOTS) is reported as “enhanced ex vivo killing”.
